Consider two molecules from patent US20260283922A1, “Particles of Hydrophobic-Chain-Modified Monosaccharides and Cyclodextrin” (PARIS SCIENCES ET LETTRES, priority 2023, published 2026).

A short description of series [1]: Solubility study of ML. The conditions noted are these: without α-CD, before stirring. In kind it is physicochemical. Here is the method: The solubility study of ML was carried out in water, methanol and methanol/chloroform mixture 1/1 v/v. In 10 mL glass vials, 10 mg of ML were added to 500 μL of solvent and left under magnetic stirring at 300 rpm at 25° C.
Series [2] in a line: Thermogravimetric analysis. In kind it is physicochemical. The conditions noted are these: α-CD value at 420° C. The method, then: The thermal behavior of ML/α-CD at 5 mg·mL^−1 and 70 mg·mL^−1 respectively and uncomplexed α-CD were studied using thermogravimetric analysis (FIG. 14).

As to `CCCCCCCCCCCCCCCCCC(=O)NCCCO[C@H]1O[C@H](CO)[C@@H](O)[C@H](O)[C@@H]1O` [ML, 3-octadecanoylamino-α-D mannopyranoside], the “solubility of ML in water” value in series [1] is given as “insoluble”.

For the molecule `OC[C@H]1O[C@@H]2O[C@H]3[C@H](O)[C@@H](O)[C@@H](O[C@H]4[C@H](O)[C@@H](O)[C@@H](O[C@H]5[C@H](O)[C@@H](O)[C@@H](O[C@H]6[C@H](O)[C@@H](O)[C@@H](O[C@H]7[C@H](O)[C@@H](O)[C@@H](O[C@H]1[C@H](O)[C@H]2O)O[C@@H]7CO)O[C@@H]6CO)O[C@@H]5CO)O[C@@H]4CO)O[C@@H]3CO` [α-CD, alpha-cyclodextrin], in series [2], the residual mass percentage is on record as 0%.
